Assay type in all cases: biochemical
The target of one experiment is T1, MMP 1 (Homo sapiens, UniProt P03956).
T1 construct: human recombinant fibroblast collagenase (truncated, mw= 18,828, WAR, Radnor)
T1 sequence (P03956 100-269 limits assumed): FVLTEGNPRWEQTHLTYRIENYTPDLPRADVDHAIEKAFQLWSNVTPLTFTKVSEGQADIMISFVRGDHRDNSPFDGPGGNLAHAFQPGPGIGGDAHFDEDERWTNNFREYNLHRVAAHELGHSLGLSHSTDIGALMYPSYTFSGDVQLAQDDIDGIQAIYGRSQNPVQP
Put plainly: In Vitro Collagenase Assay. The conditions noted are these: human recombinant fibroblast collagenase; for inhibition at 1 µM: read-out: MMP 1 % inhibition at 1 micromolar, 1 micromolar; for IC50: read-out: MMP 1 IC 50. The protocol: The assay is based on the cleavage of a peptide substrate ((Dnp-Pro-Cha-Gly-Cys(Me)-His-Ala-Lys(NMa)-NH2), Peptide International, Inc.) by collagenase releasing the fluorescent NMa group which is quantitated on the fluorometer. Dnp quenches the NMa fluorescence in the intact substrate. […] Substrate is dissolved in methanol and stored frozen in 1 mM aliquots. […] For the assay, substrate is dissolved in HCBC buffer to a final concentration of 10 µM and collagenase to a final concentration of 5 nM. Compounds are dissolved in methanol, DMSO, or HCBC. The methanol and DMSO are diluted in HCBC to < 1.0%. Compounds are added to the 96 well plate containing enzyme and the reaction is started by the addition of substrate.
The slope of the line is calculated and represents the reaction rate.
The linearity of the reaction rate is confirmed (r^2 >0.85). The mean (x ± sem) of the control rate is calculated and compared for statistical significance (p <0.05) with drug-treated rates using Dunnett's multiple comparison test.

A further experiment deals with T2, TACE (Homo sapiens, UniProt P78536).
T2 construct: purchased Immunex
T2 sequence (P78536 215-824): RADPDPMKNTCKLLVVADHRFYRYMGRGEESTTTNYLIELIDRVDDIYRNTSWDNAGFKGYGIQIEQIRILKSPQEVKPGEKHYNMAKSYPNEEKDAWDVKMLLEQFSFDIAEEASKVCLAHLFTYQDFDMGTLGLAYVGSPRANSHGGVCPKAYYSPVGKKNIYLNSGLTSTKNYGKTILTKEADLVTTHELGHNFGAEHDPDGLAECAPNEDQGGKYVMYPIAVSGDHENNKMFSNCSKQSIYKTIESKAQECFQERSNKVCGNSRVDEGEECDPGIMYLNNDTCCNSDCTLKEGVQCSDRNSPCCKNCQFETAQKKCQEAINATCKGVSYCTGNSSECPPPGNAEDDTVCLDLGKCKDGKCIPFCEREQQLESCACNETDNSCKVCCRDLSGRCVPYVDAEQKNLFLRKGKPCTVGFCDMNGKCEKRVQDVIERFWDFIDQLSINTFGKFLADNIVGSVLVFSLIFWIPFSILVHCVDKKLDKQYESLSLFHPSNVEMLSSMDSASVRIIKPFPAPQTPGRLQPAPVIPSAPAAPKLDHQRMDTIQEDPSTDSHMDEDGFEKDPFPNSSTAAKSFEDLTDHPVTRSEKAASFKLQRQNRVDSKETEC
As to the kind of experiment: Procedure for Measuring TACE Inhibition. In short, it runs like this:
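Single-concentration screen: test compound at 1 µM final, 10-min room-temperature preincubation with 1 µg/mL protease in Tris pH 7.4 buffer containing glycerol. Initial rate from linear fluorescence increase (340/420 nm) over 10 min after adding 100 µM peptidyl substrate; significance versus control rate by Dunnett's test.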

The next experiment concerns the target T3, MMP 9 (Homo sapiens, UniProt P14780).
T3 construct: from tissue; host or cells: human neutrophils
As to the kind of experiment: In Vitro Gelatinase Assay. The conditions noted are these: human neutrophil gelatinase B; for inhibition at 1 µM: read-out: MMP 9 % inhibition at 1 micromolar, 1 micromolar; for IC50: read-out: MMP 9 IC 50. The protocol:
The assay is based on the cleavage of the thiopeptide substrate ((Ac-Pro-Leu-Gly(2 mercapto-4 methyl-pentanoyl)-Leu-Gly-OEt), Bachem Bioscience) by the enzyme, gelatinase, releasing the substrate product which reacts colorimetrically with DTNB ((5,5'-dithio-bis(2-nitro-benzoic acid)). The enzyme activity is measured by the rate of the color increase. The thiopeptide substrate is made up fresh as a 20 mM stock in 100% DMSO and the DTNB is dissolved in 100% DMSO as a 100 mM stock and stored in dark at room temperature. Both the substrate and DTNB are diluted together to 1 mM with substrate buffer (50 mM HEPES pH 7.5, 5 mM CaCl2) before use. […] The increase in OD405 is plotted and the slope of the line is calculated which represents the reaction rate. The linearity of the reaction rate is confirmed (r^2 >0.85). The mean (x ± sem) of the control rate is calculated and compared for statistical significance (p <0.05) with drug-treated rates using Dunnett's multiple comparison test.

The next experiment has as its target MMP 13 (Homo sapiens, UniProt P45452). Put plainly: MMP 13 inhibition (HTS; method not described). The conditions noted are these: HTS; for inhibition at 0.036 µM: read-out: MMP 13 % inhibition at 36 nM (HTS).
The mark [1] stands for this setting: read-out: TACE % inhibition at 1 micromolar.
Where [2] appears, read: read-out: TACE % inhibition at 1 µM, 1 µM, Examples 169-240.

Read-outs that look alike come from different tables or passages of the source.

T3 sequence (P14780 94-707): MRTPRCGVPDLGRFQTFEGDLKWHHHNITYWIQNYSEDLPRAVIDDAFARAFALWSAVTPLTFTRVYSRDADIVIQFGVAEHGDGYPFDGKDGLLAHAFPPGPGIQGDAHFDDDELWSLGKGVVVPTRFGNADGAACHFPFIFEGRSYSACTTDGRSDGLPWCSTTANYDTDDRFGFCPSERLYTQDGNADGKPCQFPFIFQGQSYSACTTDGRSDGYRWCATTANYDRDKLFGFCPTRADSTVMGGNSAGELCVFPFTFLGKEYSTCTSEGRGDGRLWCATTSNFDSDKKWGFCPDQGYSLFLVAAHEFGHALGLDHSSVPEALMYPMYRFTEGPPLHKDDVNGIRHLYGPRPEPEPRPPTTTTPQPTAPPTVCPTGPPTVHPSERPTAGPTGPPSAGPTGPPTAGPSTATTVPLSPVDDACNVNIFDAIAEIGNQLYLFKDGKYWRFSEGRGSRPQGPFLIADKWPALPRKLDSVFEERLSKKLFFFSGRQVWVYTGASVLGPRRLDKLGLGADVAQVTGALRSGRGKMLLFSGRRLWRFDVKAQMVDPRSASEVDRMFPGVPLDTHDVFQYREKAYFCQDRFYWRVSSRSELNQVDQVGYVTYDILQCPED

The term inhibition denotes the drop in the measured response relative to a control, in per cent. Consider `CCCCC(C(=O)NO)S(=O)(=O)c1ccc(OC)cc1` (stereo not shown) [Example 10, 2-(4-Methoxy-benzenesulfonyl)-hexanoic acid hydroxyamide], for which the inhibition at 1 µM on MMP 1 was found to be 8%; at TACE (setting [1]), 54.8%.
On to `CCCCCCCCCCCCC(C(=O)NO)S(=O)(=O)c1ccc(OC)cc1` (stereo not shown) [Example 11, 2-(4-Methoxy-benzenesulfonyl)-tetradecanoic hydroxyamide], for which the inhibition at 1 µM on MMP 1 came to 18.8%. Also, the IC50 on TACE (read-out: TACE IC 50) is 0.942 µM.
As to `COc1ccc(S(=O)(=O)C(C)(Cc2ccccc2)C(=O)NO)cc1` (stereo not shown) [Example 12, N-Hydroxy-2-(4-methoxy-benzenesulfonyl)-2-methyl-3-phenyl-propionamide], the IC50 on MMP 1 stood at 0.1 µM. For the same compound, the inhibition at 1 µM on TACE (setting [1]) was determined as 15.5%.
As for `COc1ccc(S(=O)(=O)C(C(=O)NO)C(C)C)cc1` (stereo not shown) [Example 53, N-Hydroxy-2-(4-methoxy-benzenesulfonyl)-3-methyl-butyramide], the inhibition at 1 µM on MMP 9 was 27.8%; on TACE (setting [1]) it was 52.6%.
On to `CCCC(CCC)(C(=O)NO)S(=O)(=O)c1ccc(OC)cc1` [Example 59, 2-(4-methoxy-benzenesulfonyl)-2-propyl-pentanoic acid hydroxyamide], for which the inhibition at 1 µM on MMP 1 was found to be 30.2%; at TACE (setting [1]) it was 24.9%.
For the compound `COc1ccc(S(=O)(=O)C(Cc2ccccc2)(Cc2ccccc2)C(=O)NO)cc1` [Example 60, 2-benzyl-N-hydroxy-2-(4-methoxy-benzenesulfonyl)-3-phenyl-propionamide], the IC50 on MMP 9 came to 0.184 µM. Also, the inhibition at 1 µM on TACE (setting [1]) was 23.6%.
For the compound `CCCCC(Cc1cccnc1)(C(=O)NO)S(=O)(=O)c1ccc(OC)cc1` (stereo not shown) [Example 70, 2-(4-Methoxy-benzenesulfonyl)-2-pyridin-3-ylmethyl-hexanoic acid hydroxyamide], the inhibition at 1 µM at MMP 9 turned out to be 88.8%. Further, at TACE (read-out: TACE IC 50), the IC50 was 0.764 µM.
Take `C#CCC(CC#C)(C(=O)NO)S(=O)(=O)c1ccc(OC)cc1` [Example 73, 2-(4-Methoxy-benzenesulfonyl)-2-prop-2-ynyl-pent-4-ynoic acid hydroxyamide]: on MMP 1, the IC50 came out at 0.3 µM. Further, the inhibition at 1 µM on TACE (setting [1]) is 20.2%.
Take `COc1ccc(S(=O)(=O)C2(C(=O)NO)CCN(Cc3ccc(Br)cc3)CC2)cc1` [Example 90, 1-(4-Bromo-benzyl)-4-(4-methoxy-benzenesulfonyl)-piperidine-4-carboxylic acid hydroxyamide]: the IC50 at MMP 9 was 0.0103 µM.
Take `CCCCN1CCC(C(=O)NO)(S(=O)(=O)c2ccc(OC)cc2)CC1` [Example 93, 1-Butyl-4-(4-methoxy-benzenesulfonyl)-piperidine-4-carboxylic acid hydroxyamide]: the figures for the inhibition at 1 µM on MMP 1 and at TACE (setting [1]) were 56.3% and 15.8%, respectively.
As to `CCCCCCC(C(=O)NO)[S+]([O-])c1nc(-c2ccccc2)cs1` (stereo not shown) [Example 179, 2-(4-Phenyl-thiazole-2-sulfinyl)-octanoic acid hydroxyamide], the inhibition at 1 µM on TACE (setting [2]) worked out at 42.7%. Besides, at MMP 13 (36 nM), the inhibition at 0.036 µM worked out at 12%.
In the same order, the values of `CCCCCCC(C(=O)NO)[S+]([O-])CCc1cnccn1` (stereo not shown) [Example 180, 2-(2-Pyrazin-2-yl-ethylsulfinyl)-octanoic acid hydroxyamide] are 34.4% and 14%.
In the same order, the values of `CCCCCCC(C(=O)NO)S(=O)(=O)c1nc(-c2ccccc2)cs1` (stereo not shown) [Example 182, 2-(4-Phenyl-thiazole-2-sulfonyl)-octanoic acid hydroxyamide] are 28.6% and -9%.
As to `CCCCCCC(Sc1nccs1)C(=O)NO` (stereo not shown) [Example 186, 2-(Thiazol-2-ylsulfanyl)-octanoic acid hydroxyamide], the inhibition at 1 µM on TACE (setting [2]) stood at 19.5%. Further, on MMP 13 (36 nM), the inhibition at 0.036 µM was -14%.
`CCCCCCC(SCC1NC(=O)NC1=O)C(=O)NO` (stereo not shown) [Example 187, 2-(2,5-Dioxo-imidazolidin-4-ylmethylsulfanyl)-octanoic acid hydroxyamide]: at TACE (setting [2]), the inhibition at 1 µM was 85.5%. The inhibition at 0.036 µM at MMP 13 (36 nM) was -14%.
With `CCCCCCC(C(=O)NO)[S+]([O-])c1cccc2cccnc12` (stereo not shown) [Example 190, 2-(Quinoline-8-sulfinyl)-octanoic acid hydroxyamide], the inhibition at 1 µM at TACE (setting [2]) is 38.3%. On MMP 13 (36 nM), the inhibition at 0.036 µM is -35%.
With `CCCCCCC(C(=O)NO)S(=O)(=O)c1cccc(C(=O)NO)c1` (stereo not shown) [Example 192, 3-(1-Hydroxycarbamoyl-heptylsulfonyl)-benzoic acid hydroxyamide], the inhibition at 1 µM at TACE (setting [2]) turned out to be 33.2%. The inhibition at 0.036 µM on MMP 13 (36 nM) was -32%.
For `CCCCCCC(C(=O)NO)S(=O)(=O)c1ccc(CCC(=O)NO)cc1` (stereo not shown) [Example 193, 3-[4-(1-Hydroxycarbamoyl-heptylsulfonyl)-phenyl]-propionic acid hydroxy amide], on TACE (setting [2]), the inhibition at 1 µM turned out to be 14.9%. Besides, the inhibition at 0.036 µM at MMP 13 (36 nM) is -32%.
Turning to `CCCCCCC(C(=O)NO)S(=O)(=O)c1ncc[nH]1` (stereo not shown) [Example 194, 2-(1H-Imidazole-2-sulfonyl)-octanoic acid hydroxyamide], at TACE (setting [2]), the inhibition at 1 µM is 5.4%. For the same compound, the inhibition at 0.036 µM on MMP 13 (36 nM) was -17%.
In the same order, the values of `CCCCCCC(C(=O)NO)S(=O)(=O)CC(=O)Nc1ccc2ccccc2c1` (stereo not shown) [Example 197, 2-(Naphthalen-2-ylcarbamoylmethanesulfonyl)-octanoic acid hydroxyamide] are 17.8% and -33%.
In the same order, the values of `CCCCCCC(Sc1ccc(Nc2ccncc2)cc1)C(=O)NO` (stereo not shown) [Example 227, 2-[4-(Pyridin-4-ylamino)-phenylsulfanyl]-octanoic acid hydroxyamide] are 7.3% and 15%.
In the same order, the values of `CCCCCCC(Sc1ccc(NC2CCCC2)cc1)C(=O)NO` (stereo not shown) [Example 228, 2-(4-Cyclopentylamino-phenylsulfanyl)-octanoic acid hydroxyamide] are 6.8% and 37%.
`CCCCCCC(Sc1ccc(NC)cc1)C(=O)NO` (stereo not shown) [Example 229, 2-(4-Methylamino-phenylsulfanyl)-octanoic acid hydroxyamide]: on TACE (setting [2]), the inhibition at 1 µM stood at 34.4%. For the same compound, at MMP 13 (36 nM), the inhibition at 0.036 µM turned out to be 29%.
`CCCCCCC(Sc1ccc(N2CCCCC2)cc1)C(=O)NO` (stereo not shown) [Example 230, 2-(4-Piperidin-1-yl-phenylsulfanyl)-octanoic acid hydroxyamide]: the IC50 at TACE (Examples 169-240, read-out: TACE IC50) is 0.7 µM. The inhibition at 1 µM at TACE (setting [2]) worked out at 72.1%. Moreover, at MMP 13 (36 nM), the inhibition at 0.036 µM stood at 29%.
Turning to `CCCCCCC(Sc1ccc(N2CCNCC2)cc1)C(=O)NO` (stereo not shown) [Example 231, 2-(4-Piperazin-1-yl-phenylsulfanyl)-octanoic acid hydroxyamide], the inhibition at 1 µM at TACE (setting [2]) worked out at 41.6%. Moreover, at MMP 13 (36 nM), the inhibition at 0.036 µM turned out to be 23%.
For the compound “(1-Hydroxycarbamoyl-propane-1-sulfanyl)-propionic acid hydroxyamide [Example 122]”, on TACE (1 µM, Examples 110-168), the “TACE % inhibition at 1 µM” value stood at 3.1%. In addition, the “MMP 13 % inhibition at 0.2 µM (HTS)” value on MMP 13 amounted to 0%.
In the same order, the values of “(1-Hydroxycarbamoyl-propane-1-sulfinyl)-acetic acid hydroxy amide [Example 121]” are 6.1% and 0%.
For the compound “Benzo[1,2,5]thiadiazole-4-sulfonic acid 4-(1-hydroxycarbamoyl-heptylsulfonyl)-hydroxyamide [Example 240]”, at TACE (1 µM, Examples 169-240), the “TACE % inhibition at 1 µM” value turned out to be 40.3%. Further, the “MMP 13 % inhibition at 36 nM (HTS)” value on MMP 13 (36 nM) stood at 48%.
“N-Hydroxy-3-methyl-2-phenethylsulfinyl-butyramide [Example 117]”: the “TACE % inhibition at 1 µM” value at TACE (1 µM, Examples 110-168) is on record as 8.1%. In addition, on MMP 13, the “MMP 13 % inhibition at 0.2 µM (HTS)” value amounted to 7%.

The values are drawn from patent publication EP0970046B1, “N-HYDROXY-2-(ALKYL, ARYL, OR HETEROARYL SULFANYL, SULFINYL OR SULFONYL)-3-SUBSTITUTED ALKYL, ARYL OR HETEROARYLAMIDES AS MATRIX METALLOPROTEINASE INHIBITORS” (Wyeth Holdings Corporation, priority 1997, dated 1998).
